Entries after “also recorded” stand apart in the source; their conditions may differ.
Experiments:
human duodenal enteroids [1] = assay: qPCR analysis of enteroendocrine and lineage markers in enteroids; format: cell-based
Source text: For differentiation, enteroids were passaged and grown in GM for two days, to allow for ISC expansion, after which the organoids were transitioned to tissue-specific differentiation media (DM) with additional small molecules added as described (TABLE 1A and TABLE 1B). Media was changed every two days, with Tubastatin A being removed after the second day of differentiation. Enteroids and rectoids were taken for analysis after 14 days.
Total RNA was purified from individual wells using TRI®Reagent (Sigma) and the Direct-zol™ RNA kit (Zymo Research), following the manufacturer's protocol. RNA concentration was determined using a NanoDrop™ 1000 spectrophotometer (Life Technologies). RNA was treated with DNAse (Promega) and reverse transcribed using the High-Capacity cDNA Reverse Transcription Kit (Life Technologies). Gene expression analysis was then performed by Real Time quantitative PCR (qPCR) using a QuantStudio 6 Flex thermocycler (Life Technologies). Taqman primers from Life Technologies (TABLE 3) were used. 18S transcripts were used as the internal control and data were expressed using the 2^−ddCt method with Ct limit of 40. Fold change, unless otherwise stated, was compared to total RNA derived from adult whole mucosal tissue biopsies.

human duodenal enteroids [2] = assay: Immunofluorescence staining of hormones (SST, 5HT, GIP, CCK) in enteroids; format: cell-based; conditions: 14-day protocol
Experimental: Immunofluorescence staining was performed as previously described with minor modifications (Dekkers J F, Alieva M, Wellens L M, et al. Nat Protoc 2019; 14:1l756-1771)^32. Organoids were grown in and isolated from Matrigel® as noted above. 1-3 wells from a 24-well plate were washed in 200 μL of 1× phosphate-buffered saline (PBS) and moved in suspension to a 1.5 mL microcentrifuge tube. Each tube was centrifuged at 800×g for 5 minutes at 4° C. to pellet organoids. PBS was aspirated, and organoids were fixed in 200 μL of 4% paraformaldehyde (PFA) for 20 minutes on ice, shaking. Each tube was centrifuged again as above, and PFA was aspirated. The organoids were then resuspended in 500 μL of 0.3% Triton-X in PBS and moved to a 48-well plate for the remaining steps. The organoids were permeabilized for 30 minutes at room temperature, shaking. Between each step, organoids were allowed to settle to the bottom of each well, the plate was angled, and the solution aspirated by careful pipetting. Organoids were then blocked with 5% bovine serum albumin in PBS for 1.5 hours at room temperature, shaking. This was followed by three five-minute washes in 500 μL of PBS at room temperature, shaking.
Each well was then incubated in 200 μL of primary antibodies diluted in 5% BSA/0.1% Trition-X in PBS at 4° C. overnight. This was followed by five washes in 500 μL of 0.1% Triton-X in PBS for 15 minutes each at room temperature, shaking. 200 μL of secondary antibodies, including Alexa Fluor 488- or 647-conjugated anti-mouse (Invitrogen, A-21202, or A-31571, 1:400), Alexa Fluor 488-conjugated anti-rat (Invitrogen, A-21208, 1:400), Alexa Fluor 488-conjugated anti-goat (Invitrogen, A-11055, 1:400) or Alexa Fluor 647-conjugated anti-rabbit (Invitrogen, A-31573, 1:400), diluted in 0.1% Triton-X in PBS, which were then added to each well and incubated for two hours at room temperature, shaking. Organoids were then washed as above, then moved to new 1.5 mL centrifuge tubes. During the last wash, 4′,6-diamidino-2-phenylindole (DAPI, Life Technologies, D1306) was added at a concentration of 1:1000 for nuclear staining. Organoids were then centrifuged at 1000×g for 5 minutes at 4° C. to assist in removal of as much PBS as possible. Slides were prepared by drawing three circles with a hydrophobic pen (Vector Laboratories, H-4000). Enteroids were then resuspended in 20 μL of Prolong Gold Antifade mountant (Life Technologies, P36930), and droplets placed within hydrophobic circles. […]
This technique was adapted from a previously described method (Borten M A, Bajikar S S, Sasaki N, et al. Sci Rep 2018; 8:5319)^69. […] Any remaining clumped enteroids were manually separated prior to quantification. […]

Compound: CCn1cc(C(=O)O)c(=O)c2c(N)c(F)c(NC3CCCCC3)cc21 [AS, AS1842856]
- expression of the enterocyte marker ALP1 (qPCR) (human duodenal enteroids [1]; compared to G14 and G2D12): reduced expression
- other intestinal lineage marker mRNA expression (qPCR) (human duodenal enteroids [1]; compared to G14 and G2D12): increased expression of other secretory and ISC markers, including ATOH1, MUC2, LYZ, and LGR5
- EE marker mRNA expression (qPCR) (human duodenal enteroids [1]; compared to G14 and G2D12, referenced to whole mucosa, normalized to 18S): induced similar mRNA expression trends as Rim and SP (RSP); also recorded: upregulation of multiple EE markers (CHGA, PAX4, PDX1, NEUROD1, NEUROG3, SST and GIP), many to levels approximating whole mucosa
- EE marker mRNA expression, direct comparison of protocols (qPCR) (human duodenal enteroids [1]; compared to RSP / AS alone, FIG. 5.1A and 5A): higher expression of CHGA, NEUROD1, NEUROG3, and SST
- MUC2, ALP1 and LGR5 mRNA expression compared to those that received RSP alone (human duodenal enteroids [1]; qPCR, FIG. 7.1A): decreased expression of MUC2 and ALP1 and increased expression of LGR5
- percentage of CCK-positive enteroids (human duodenal enteroids [2]): 4.5%
- percentage of GIP-positive enteroids (human duodenal enteroids [2]): 53%
- percentage of enteroids containing SST-positive cells (human duodenal enteroids [2]): 42%
- percentage of enteroids with positive 5HT staining (human duodenal enteroids [2]): 75%

Reference: US20230257715A1, “COMPOSITIONS AND METHODS FOR REGULATING ENTEROENDOCRINE CELL DIFFERENTIATION AND USES THEREOF” (The Children's Medical Center Corporation, priority 2020, published 2023)
